Measurements published in patent publication US20220273638A1 (Belina Pharma AB, priority 2019, published 2022).

Assays:
[1] = use 6 months before and after diagnosis; adjusted for Breslow, sentinel lymph node status and education level
[2] = Nation-wide register-based study, Cox regression: overall mortality/survival by antihistamine use; type: in vivo, human; conditions: hazard ratio versus non-users
Method: (§1) Both peri- and post-diagnostic antihistamine use was analyzed, using Cox regression models, as well as different subgroups of patients with regard to age, gender (as a proxy for sex) and tumor status.
(§2) Our study population included all of the 35,905 individuals with newly diagnosed melanoma from 2005 through 2014, identified using the Swedish National Quality Register for Malignant Skin Melanoma (hereafter referred to as the Melanoma Register), a database comprising all cases of malignant melanoma of the skin in Sweden since 1990. Melanoma in situ is not included in this register, nor melanoma in any other site than the skin. It has a coverage of approximately 98%, and in addition to variables such as age and TNM status, the Melanoma Register also includes information on the histopathology of the tumors, such as Breslow and Clark measures. Use of the six major antihistamines was established using the Swedish Prescribed Drug Register, a record of all dispensed prescribed pharmaceuticals in Sweden since July 1st 2005. To be included in the registry at least 2 weeks of prescription is required. Prescription free antihistamine use, non-dispensed doses, or use of other, less common, types of antihistamines is here considered non-use. Causes of death were obtained from the Swedish Cause of Death Register, a database where all deaths have been recorded since 1952. Data was pseudo-anonymized and the study was approved by the Regional Ethics Board.
(§3) For the cumulative post-diagnostic antihistamine use analysis, mortality rates for antihistamine users were compared to those of non-users through a Cox regression model allowing for time varying covariates, and survival time was measured in years since diagnosis. This allowed for a single individual to provide data as both a non-user and user of different antihistamines.
(§4) The impact of the cumulative DDDs was assessed after log transformation of the DDDs plus one3. Cox regression analyses were stratified for patient age at diagnosis, tumor size and node status (T and N status, respectively). A lag-time analysis was performed as described by Tamim et al. and Richardson et al. Statistical analyses were performed using R version XXX6.

[3] = for HR, melanoma specific survival adjusted for Breslow thickness / HR, melanoma specific survival adjusted for Breslow thickness and lymph gland metastases: hazard ratio versus non-users; for survivability, comparative results adjusted for Breslow thickness: tables 1 and 2, adjusted for Breslow thickness; for effect on melanoma survival: regardless of age, gender and tumor status
Method: as §1, §2, §3, §4

[4] = Risk of developing a second (new primary) melanoma after the first melanoma diagnosis; type: in vivo, human; conditions: for HR, risk of a new primary melanoma: use longer than 3 years after the first diagnosis, adjusted for age and sex, p<0.05
[5] = somnolence, tachycardia and headache reported; cited from earlier work

Row | Structure (SMILES) | HR, peridiagnostic use, melanoma mortality [1] | HR, overall survival adjusted for Breslow thickness [2] | HR, overall survival adjusted for Breslow thickness and lymph gland metastases [2] | HR, melanoma specific survival adjusted for Breslow thickness [3] | HR, melanoma specific survival adjusted for Breslow thickness and lymph gland metastases [3] | survivability, comparative results adjusted for Breslow thickness [3] | effect on melanoma survival [3] | risk of a new primary melanoma, follow up counted from day 1 [4] | HR, risk of a new primary melanoma [4] | melanoma specific mortality HR, Men <65 ([3]; Men <65, 95% CI in brackets) | melanoma specific mortality HR, Men >65 ([3]; Men >65, 95% CI in brackets) | melanoma specific mortality HR, Women <65 ([3]; Women <65, 95% CI in brackets) | melanoma specific mortality HR, Women >65 ([3]; Women >65, 95% CI in brackets) | melanoma specific mortality HR, looking at DDD:s ([3]; by defined daily doses (DDDs), 95% CI in brackets) | symptoms in connection with overdoses [5]
1 | O=C(O)COCCN1CCN(C(c2ccccc2)c2ccc(Cl)cc2)CC1 (centres unmarked) [Cetirizine, cetirizine] | 0.962 | 1 | 0.991 | 1.006 | 1.014 | lack of improval of survivability | – | – | – | – | – | – | – | – | –
2 | CN1CCC[C@@H]1CCO[C@](C)(c1ccccc1)c1ccc(Cl)cc1 [Clemastine, clemastine] | 1.005 | 1.114 | 1.101 | 1.027 | 0.993 | lack of improval of survivability | consistently negative effect | – | – | – | – | – | – | – | –
3 | Clc1ccc2c(c1)CCc1cccnc1C2=C1CCNCC1 [Desloratadine, desloratadine] | 0.569 | 0.95 | 0.953 | 0.883 | 0.889 | – | consistently beneficial effect | No significant difference | 0.88 | 0.69 (0.37-1.29) | 0.77 (0.45-1.33) | 0.57 (0.25-1.28) | 0.80 (0.44-1.45) | 0.93 (0.87-1.00) | –
4 | CC(C)(C)c1ccc(C(=O)CCCN2CCC(OC(c3ccccc3)c3ccccc3)CC2)cc1 [Ebastine, ebastine] | 1.032 | 1.117 | 1.076 | 1.138 | 1.03 | lack of improval of survivability | – | – | – | – | – | – | – | – | –
5 | CC(C)(C(=O)O)c1ccc(C(O)CCCN2CCC(C(O)(c3ccccc3)c3ccccc3)CC2)cc1 (centres unmarked) [Fexofenadine, fexofenadine] | 0.901 | 1.011 | 1.013 | 0.979 | 0.935 | lack of improval of survivability | – | – | – | – | – | – | – | – | –
6 | CCOC(=O)N1CCC(=C2c3ccc(Cl)cc3CCc3cccnc32)CC1 [Loratadine, loratadine] | 0.534 | 0.962 | 0.964 | 0.858 | 0.851 | – | consistently beneficial effect | No significant difference | 0.88 | – | – | – | – | – | increase the incidence of anticholinergic symptoms
